Patent US20240270741A1 (Cogent Biosciences, Inc., priority 2023, published 2024)

Target: FGFR2 (Homo sapiens, UniProt P21802)
Assay: FGFR wild type enzyme assay (HTRF KinEASE-TK), FGFR2
Conditions: Enz FGFR2 (nM), FGFR2 wild type enzyme
Experimental: Activity against FGFR wild type and mutant enzymes were determined in biochemical assays using purified intracellular domains of the respective isoforms using HTRF KinEASE-TK assay technology from CisBio, now PerkinElmer. (Catalogue number 62TK0PEC). Briefly test compounds were tested in 11 point 1:3 serial dilutions, typical final concentration ranges from 10,000 nM to 0.17 nM. Test compounds were dissolved in DMSO and added to assay plates using acoustic transfer. Enzyme was pre-incubated with test compound for 30 minutes and the assay was initiated by addition of ATP and TK-peptide substrate. After 60 minutes at room temperature the reaction was quenched with detection reagent and incubated for an additional 60 minutes at room temperature. The plates were read using a multimode reader and the emission ratio of 665 nm to 615 nm was determined. This ratio was converted to percent of control (POC). [1-(high control-sample signal)/(high control-low control)]*100. Wells without compound were used to determine high control values and wells without enzyme were used to determine low control values. The POC values were fit using a four-parameter logistic model and the value where the fit curve was equal to 50 POC was reported as the IC50 using the Signals Vitro Vivo software package (PerkinElmer). Final assay conditions were: 50 mM HEPES pH7.5, 10 mM MgCl2, 1 mM EDTA, 0.01% Brij-35, 2 mM MnCl2, 1 mM DTT, and 0.5 uM TK-peptide.

FGFR2, sequence (P21802 399-821 limits assumed): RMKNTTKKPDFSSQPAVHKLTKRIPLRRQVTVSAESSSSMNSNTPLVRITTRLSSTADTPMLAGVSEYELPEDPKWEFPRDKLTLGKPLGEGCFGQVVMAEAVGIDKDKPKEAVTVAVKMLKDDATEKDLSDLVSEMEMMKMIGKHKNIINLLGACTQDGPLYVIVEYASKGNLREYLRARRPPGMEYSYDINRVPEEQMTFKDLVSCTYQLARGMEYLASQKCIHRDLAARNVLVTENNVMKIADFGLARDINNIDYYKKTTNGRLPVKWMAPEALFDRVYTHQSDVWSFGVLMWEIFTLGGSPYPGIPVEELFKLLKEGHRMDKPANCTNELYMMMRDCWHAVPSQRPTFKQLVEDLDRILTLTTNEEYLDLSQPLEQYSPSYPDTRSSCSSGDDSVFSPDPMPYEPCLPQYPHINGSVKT

Structure (SMILES) | IC50 [nM]
Cc1c(-c2cc(Sc3ccccc3C#N)c3c(C#N)cnn3c2)cnn1C1CCN(Cc2ccccn2)CC1 [Example 267, 4-((2-cyanophenyl)thio)-6-(5-methyl-1-(1-(pyridin-2-ylmethyl)piperidin-4-yl)-1H-pyrazol-4-yl)pyrazolo[1,5-a]pyridine-3-carbonitrile] | 0.6
Cc1c(-c2cc(Sc3ccccc3C#N)c3c(C#N)cnn3c2)cnn1[C@H]1CC[C@@H](NC(=O)C(C)(C)O)CC1 [Example 268, N-((1s,4s)-4-(4-(3-cyano-4-((2-cyanophenyl)thio)pyrazolo [1,5-a]pyridin-6-yl)-5-methyl-1H-pyrazol-1-yl)cyclohexyl)-2-hydroxy-2-methylpropanamide] | 0.4
Cc1c(-c2cc(Sc3ncccc3F)c3c(C#N)cnn3c2)cnn1[C@H]1CC[C@@H](NCC(=O)N(C)C)CC1 [Example 269, 2-(((1s,4s)-4-(4-(3-cyano-4-((3-fluoropyridin-2-yl)thio)pyrazolo[1,5-a]pyridin-6-yl)-5-methyl-1H-pyrazol-1-yl)cyclohexyl)amino)-N,N-dimethylacetamide] | 1
Cc1c(-c2cc(Sc3ncccc3F)c3c(C#N)cnn3c2)cnn1[C@H]1CC[C@@H](NCc2ccccn2)CC1 [Example 270, 4-((3-fluoropyridin-2-yl)thio)-6-(5-methyl-1-((1s,4s)-4-((pyridin-2-ylmethyl)amino)cyclohex-yl)-1H-pyrazol-4-yl)pyrazolo[1,5-a]pyridine-3-carbonitrile] | 0.7
Cc1c(-c2cc(Sc3ncccc3F)c3c(C#N)cnn3c2)cnn1[C@H]1CC[C@@H](NC(=O)C(C)(C)O)CC1 [Example 271, N-((1s,4s)-4-(4-(3-cyano-4-((3-fluoropyridin-2-yl)thio)pyrazolo[1,5-a]pyridin-6-yl)-5-methyl-1H-pyrazol-1-yl)cyclohexyl)-2-hydroxy-2-methylpropanamide] | 1
CC(=O)N[C@H]1CC[C@H](n2ncc(-c3cc(Sc4ccccc4C#N)c4c(C#N)cnn4c3)c2C)CC1 [Example 272, N-((1r,4r)-4-(4-(3-cyano-4-((2-cyanophenyl)thio)pyrazolo [1,5-a]pyridin-6-yl)-5-methyl-1H-pyrazol-1-yl)cyclohexyl)acetamide] | 1
CC(=O)N[C@H]1CC[C@@H](n2ncc(-c3cc(Sc4ccccc4C#N)c4c(C#N)cnn4c3)c2C)CC1 [Example 273, N-((1s,4s)-4-(4-(3-cyano-4-((2-cyanophenyl)thio)pyrazolo [1,5-a]pyridin-6-yl)-5-methyl-1H-pyrazol-1-yl)cyclohexyl)acetamide] | 0.5
CC(=O)N[C@H]1CC[C@H](n2ncc(-c3cc(Sc4ccc(F)cc4C#N)c4c(C#N)cnn4c3)c2C)CC1 [Example 274, N-((1r,4r)-4-(4-(3-cyano-4-((2-cyano-4-fluorophenyl)thio)pyrazolo [1,5-a]pyridin-6-yl)-5-methyl-1H-pyrazol-1-yl)cyclohexyl)acetamide] | 1
Cc1c(-c2cc(Sc3ccc(F)cc3C#N)c3c(C#N)cnn3c2)cnn1[C@H]1CC[C@H](O)CC1 [Example 275, 4-(2-cyano-4-fluoro-phenyl)sulfanyl-6-[1-(4-hydroxycyclohexyl)-5-methyl-pyrazol-4-yl]pyrazolo[1,5-a]pyridine-3-carbonitrile] | 1
Cc1c(-c2cc(Sc3ncccc3F)c3c(C#N)cnn3c2)cnn1[C@H]1CCNC[C@@H]1O [Example 276, 4-[(3-fluoro-2-pyridyl)sulfanyl]-6-[1-[(3S,4S)-3-hydroxy-4-piperidyl]-5-methylpyrazol-4-yl]pyrazolo[1,5-a]pyridine-3-carbonitrile] | 3
Cc1c(-c2cc(Sc3ncccc3F)c3c(C#N)cnn3c2)cnn1[C@@H]1CCNC[C@H]1O [Example 277, 4-((3-fluoropyridin-2-yl)thio)-6-(1-((3R,4R)-3-hydroxypiperidin-4-yl)-5-methyl-1H-pyrazol-4-yl)pyrazolo[1,5-a]pyridine-3-carbonitrile] | 15
CC(=O)N1CCO[C@@H](Cn2ncc(-c3cc(Sc4ccccc4C#N)c4c(C#N)cnn4c3)c2C)C1 [Example 278, (R)-6-(1-((4-acetylmorpholin-2-yl)methyl)-5-methyl-1H-pyrazol-4-yl)-4-((2-cyanophenyl)thio)pyrazolo [1,5-a]pyridine-3-carbonitrile] | 4
CC(=O)N1CCO[C@H](Cn2ncc(-c3cc(Sc4ccccc4C#N)c4c(C#N)cnn4c3)c2C)C1 [Example 279, (S)-6-(1-((4-acetylmorpholin-2-yl)methyl)-5-methyl-1H-pyrazol-4-yl)-4-((2-cyanophenyl)thio)pyrazolo [1,5-a]pyridine-3-carbonitrile] | 3
CC(=O)N1CCO[C@@H](Cn2ncc(-c3cc(Sc4ncccc4F)c4c(C#N)cnn4c3)c2C)C1 [Example 280, (R)-6-(1-((4-acetylmorpholin-2-yl)methyl)-5-methyl-1H-pyrazol-4-yl)-4-((3-fluoropyridin-2-yl)thio)pyrazolo[1,5-a]pyridine-3-carbonitrile] | 12
Cc1c(-c2cc(Sc3ncccc3F)c3c(C#N)cnn3c2)cnn1[C@H]1CC[C@@H](CO)CC1 [Example 281, 4-((3-fluoropyridin-2-yl)thio)-6-(1-((1s,4s)-4-(hydroxymethyl)cyclohex-yl)-5-methyl-1H-pyrazol-4-yl)pyrazolo[1,5-a]pyridine-3-carbonitril] | 2
Cc1c(-c2cc(Sc3ncccc3F)c3c(C#N)cnn3c2)cnn1[C@H]1CC[C@@](C)(N)CC1 [Example 282, 6-(1-((1s,4s)-4-amino-4-methylcyclohexyl)-5-methyl-1H-pyrazol-4-yl)-4-((3-fluoropyridin-2-yl)thio)pyrazolo[1,5-a]pyridine-3-carbonitrile] | 1
Cc1c(-c2cc(Sc3ccccc3C#N)c3c(C#N)cnn3c2)cnn1[C@H]1CC[C@H](N(C)CCO)CC1 [Example 284, 4-((2-cyanophenyl)thio)-6-(1-((1r,4SR)-4-((2-hydroxyethyl)(methyl)ami-no)cyclohexyl)-5-methyl-1H-pyrazol-4-yl)pyrazolo[1,5-a]pyridine-3-carbonitrile] | 0.4
Cc1c(-c2cc(Sc3ccccc3C#N)c3c(C#N)cnn3c2)cnn1[C@H]1CC[C@@H](NS(C)(=O)=O)CC1 [Example 285, N-((1s,4s)-4-(4-(3-cyano-4-((2-cyanophenyl)thio)pyrazolo [1,5-a]pyridin-6-yl)-5-methyl-1H-pyrazol-1-y)cyclohexyl)methane-sulfonamide] | 1
Cc1c(-c2cc(Sc3ccccc3C#N)c3c(C#N)cnn3c2)cnn1C1CCN(Cc2ncccn2)CC1 [Example 286, 4-((2-cyanophenyl)thio)-6-(5-methyl-1-(1-(pyrimidin-2-ylmethyl)piperidin-4-yl)-1H-pyrazol-4-yl)pyrazolo[1,5-a]pyridine-3-carbonitrile] | 1
Cc1c(-c2cc(Sc3ccccc3C#N)c3c(C#N)cnn3c2)cnn1[C@H]1CC[C@@H](NCc2ccccn2)CC1 [Example 287, 4-((2-cyanophenyl)thio)-6-(5-methyl-1-((1s,4s)-4-((pyridin-2-ylmethyl)amino)cyclohex-yl)-1H-pyrazol-4-yl)pyrazolo[1,5-a]pyridine-3-carbonitrile] | 0.4
Cc1c(-c2cc(Sc3ccc(F)cc3C#N)c3c(C#N)cnn3c2)cnn1[C@H]1CC[C@@H](O)CC1 [Example 288, 4-((2-cyano-4-fluorophenyl)thio)-6-(1-((1s,4s)-4-hydroxycyclohexyl)-5-methyl-1H-pyrazol-4-yl)pyrazolo[1,5-a]pyridine-3-carbonitrile] | 1
